# Data published in patent US12162890B2 (Novartis AG, priority 2015, dated 2024).
# Biological target: HEK293 cells with stable expression of the GRIN1 gene and tetracycline-inducible expression of the GRIN2B gene (NMDA receptor, NR2B) (Homo sapiens, UniProt Q13224)
# Experiment: Fluo-8 Ca2+ flux assay: reversal of Ro 25-6981-mediated suppression of the Ca2+ response to co-agonist (glutamate/glycine); also: test concentration or dose not given here
# Format: cell-based
# Details: reversal of the Ro 25-6981 suppression of the Ca2+ response to co-agonist (glutamate/glycine)
# Sequence of HEK293 cells with stable expression of the GRIN1 gene and tetracycline-inducible expression of the GRIN2B gene (NMDA receptor, NR2B) (Q13224 27-1484, other chains not shown): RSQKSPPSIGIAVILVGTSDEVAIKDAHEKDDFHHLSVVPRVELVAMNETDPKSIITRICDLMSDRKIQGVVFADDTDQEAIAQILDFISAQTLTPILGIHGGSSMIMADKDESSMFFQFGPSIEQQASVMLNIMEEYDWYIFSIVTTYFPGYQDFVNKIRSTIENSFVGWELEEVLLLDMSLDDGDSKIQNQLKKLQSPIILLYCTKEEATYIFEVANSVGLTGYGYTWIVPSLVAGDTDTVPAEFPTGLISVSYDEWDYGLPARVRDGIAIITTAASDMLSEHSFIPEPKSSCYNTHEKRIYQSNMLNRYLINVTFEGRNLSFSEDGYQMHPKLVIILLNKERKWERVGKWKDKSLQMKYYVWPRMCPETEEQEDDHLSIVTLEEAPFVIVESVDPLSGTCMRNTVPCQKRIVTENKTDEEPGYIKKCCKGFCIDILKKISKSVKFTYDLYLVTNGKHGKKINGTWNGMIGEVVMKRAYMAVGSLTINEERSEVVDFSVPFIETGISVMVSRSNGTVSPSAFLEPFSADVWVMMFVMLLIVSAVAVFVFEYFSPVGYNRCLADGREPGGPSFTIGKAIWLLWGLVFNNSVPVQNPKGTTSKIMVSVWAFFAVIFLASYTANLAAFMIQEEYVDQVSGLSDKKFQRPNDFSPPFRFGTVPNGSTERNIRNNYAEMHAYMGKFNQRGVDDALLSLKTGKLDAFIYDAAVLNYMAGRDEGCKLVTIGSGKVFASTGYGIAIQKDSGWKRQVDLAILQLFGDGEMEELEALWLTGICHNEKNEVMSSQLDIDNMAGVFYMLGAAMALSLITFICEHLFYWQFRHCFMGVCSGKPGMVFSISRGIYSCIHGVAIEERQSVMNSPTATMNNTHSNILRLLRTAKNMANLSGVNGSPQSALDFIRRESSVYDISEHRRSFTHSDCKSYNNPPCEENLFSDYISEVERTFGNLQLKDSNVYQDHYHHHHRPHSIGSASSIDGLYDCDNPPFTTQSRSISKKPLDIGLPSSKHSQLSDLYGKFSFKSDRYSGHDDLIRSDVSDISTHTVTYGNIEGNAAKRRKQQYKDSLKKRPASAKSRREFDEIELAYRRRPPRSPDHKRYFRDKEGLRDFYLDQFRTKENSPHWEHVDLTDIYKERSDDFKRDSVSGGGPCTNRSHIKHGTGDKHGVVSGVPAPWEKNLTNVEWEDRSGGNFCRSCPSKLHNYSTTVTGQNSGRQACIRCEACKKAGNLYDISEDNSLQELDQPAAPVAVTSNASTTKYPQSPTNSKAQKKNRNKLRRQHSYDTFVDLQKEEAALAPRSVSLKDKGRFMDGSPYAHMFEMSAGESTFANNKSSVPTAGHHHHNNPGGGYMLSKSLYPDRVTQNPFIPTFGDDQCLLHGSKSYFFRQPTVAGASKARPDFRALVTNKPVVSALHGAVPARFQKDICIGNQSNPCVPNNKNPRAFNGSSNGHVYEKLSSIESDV
row,Response Recovered (%),SMILES
1,120,"Cc1cc(-c2nc(C3CC3)n3ccn(CC(=O)N4CC(C)(F)C4)c(=O)c23)ccc1Cl [Example 443, 1-(4-chloro-3-methylphenyl)-3-cyclopropyl-7-(2-(3-fluoro-3-methylazetidin-1-yl)-2-oxoethyl)imidazo[1,5-a]pyrazin-8(7H)-one]"
2,58,"CC1(F)CN(C(=O)Cn2ccn3cnc(-c4ccc(Cl)c(Cl)c4)c3c2=O)C1 [Example 447, 1-(3,4-dichlorophenyl)-7-(2-(3-fluoro-3-methylazetidin-1-yl)-2-oxoethyl)imidazo[1,5-a]pyrazin-8(7H)-one]"
3,33,"O=C(Cn1ccc2ncc(-c3ccc(Cl)c(Cl)c3)n2c1=O)N1CCC(F)C1 (centres unmarked) [Example 450, 3-(3,4-dichlorophenyl)-6-(2-(3-fluoropyrrolidin-1-yl)-2-oxoethyl)imidazo[1,2-c]pyrimidin-5(6H)-one]"
4,35,"Cc1cn(CC(=O)N2CCC(F)C2)c(=O)n2c(-c3ccc(F)c(C(F)(F)F)c3)cnc12 (centres unmarked) [Example 454, 3-(4-fluoro-3-(trifluoromethyl)phenyl)-6-(2-(3-fluoropyrrolidin-1-yl)-2-oxoethyl)-8-methylimidazo[1,2-c]pyrimidin-5(6H)-one]"

# Second part, the compound before the results:
row,SMILES,Response Recovered (%)
1,"CC1(F)CN(C(=O)Cn2ccn3cnc(-c4ccc(F)c(Cl)c4)c3c2=O)C1 [Example 445, 1-(3-chloro-4-fluorophenyl)-7-(2-(3-fluoro-3-methylazetidin-1-yl)-2-oxoethyl)imidazo[1,5-a]pyrazin-8(7H)-one]",34
2,"CC1(F)CN(C(=O)Cn2ccn3cnc(-c4ccc(F)c(C(F)(F)F)c4)c3c2=O)C1 [Example 446, 1-(4-fluoro-3-(trifluoromethyl)phenyl)-7-(2-(3-fluoro-3-methylazetidin-1-yl)-2-oxoethyl)imidazo[1,5-a]pyrazin-8(7H)-one]",68
3,"O=C(Cn1ccc2ncc(-c3ccc(F)c(C(F)(F)F)c3)n2c1=O)N1CCC(F)C1 (centres unmarked) [Example 448, 3-(4-fluoro-3-(trifluoromethyl)phenyl)-6-(2-(3-fluoropyrrolidin-1-yl)-2-oxoethyl)imidazo[1,2-c]pyrimidin-5(6H)-one]",14
4,"O=C(Cn1ccc2ncc(-c3cnc(Cl)c(C(F)(F)F)c3)n2c1=O)N1CCC(F)C1 (centres unmarked) [Example 449, 3-(6-chloro-5-(trifluoromethyl)pyridin-3-yl)-6-(2-(3-fluoropyrrolidin-1-yl)-2-oxoethyl)imidazo[1,2-c]pyrimidin-5(6H)-one]",5.2
5,"O=C(Cn1ccc2ncc(-c3ccc(F)c(Cl)c3)n2c1=O)N1CCC(F)C1 (centres unmarked) [Example 451, 3-(3-chloro-4-fluorophenyl)-6-(2-(3-fluoropyrrolidin-1-yl)-2-oxoethyl)imidazo[1,2-c]pyrimidin-5(6H)-one]",23
6,"Cc1cn(CC(=O)N2CCC(F)C2)c(=O)n2c(-c3ccc(F)c(Cl)c3)cnc12 (centres unmarked) [Example 452, 3-(3-chloro-4-fluorophenyl)-6-(2-(3-fluoropyrrolidin-1-yl)-2-oxoethyl)-8 methylimidazo[1,2-c]pyrimidin-5(6H)-one]",7.5
7,"Cc1cn(CC(=O)N2CCC(F)C2)c(=O)n2c(-c3ccc(Cl)c(Cl)c3)cnc12 (centres unmarked) [Example 453, 3-(3,4-dichlorophenyl)-6-(2-(3-fluoropyrrolidin-1-yl)-2-oxoethyl)-8-methylimidazo[1,2-c]pyrimidin-5(6H)-one]",26
